Assay [1] addresses Histone deacetylase 1 (Homo sapiens) (UniProt Q13547). As to the kind of experiment: Inhibition of HDAC1.
A further assay has as its system HCT-116. Description: Growth inhibition of human HCT116 cells after 72 hrs. It counts as functional.

Histone deacetylase 1 (Homo sapiens), sequence (Q13547 whole entry): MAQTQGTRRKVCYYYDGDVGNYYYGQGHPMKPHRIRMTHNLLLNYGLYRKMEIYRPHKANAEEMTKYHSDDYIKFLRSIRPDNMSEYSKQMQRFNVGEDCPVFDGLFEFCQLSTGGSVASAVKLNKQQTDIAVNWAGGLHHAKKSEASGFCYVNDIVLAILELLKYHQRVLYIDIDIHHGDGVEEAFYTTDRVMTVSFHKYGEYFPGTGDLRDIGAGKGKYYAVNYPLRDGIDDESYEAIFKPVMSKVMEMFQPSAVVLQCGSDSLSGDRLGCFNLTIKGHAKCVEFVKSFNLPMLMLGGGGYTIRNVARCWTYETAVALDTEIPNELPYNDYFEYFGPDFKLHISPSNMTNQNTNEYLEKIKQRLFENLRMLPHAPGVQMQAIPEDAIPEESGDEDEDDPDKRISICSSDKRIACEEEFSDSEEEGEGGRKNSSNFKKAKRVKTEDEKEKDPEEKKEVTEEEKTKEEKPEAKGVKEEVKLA

For the compound `Cc1ccc(NC(=O)C(c2ccc3cc(C(=O)Nc4ccccc4N)sc3c2)N2CCN(C)CC2)cc1` (single isomer, unassigned; enantiomer 2) [listing 1 of 2 here], the Inflection point in assay [1] amounted to 18 nM. Compound `COc1ccc(NC(=O)C(NCc2ccccc2)c2ccc3cc(C(=O)NO)sc3c2)cc1` (stereo not drawn) registered an Inflection point in assay [1] of 4 nM. Compound `Cc1ccc(NC(=O)C(c2ccc3cc(C(=O)Nc4ccccc4N)sc3c2)N2CCN(C)CC2)cc1` (single isomer, unassigned; enantiomer 2) [listing 2 of 2 here] showed an Inflection point in the assay on HCT-116 of 560 nM.

`Nc1ccccc1NC(=O)c1cc2ccc(C(C(=O)NCc3ccccc3)N3CCN(C/C=C/c4ccccc4)CC3)cc2s1` (stereo not drawn): the Inflection point in assay [1] was determined as 230 nM. Regarding `Nc1ccccc1NC(=O)c1ccc(C(NC(=O)CCc2ccccc2)C(=O)Nc2ccc3ccccc3c2)cc1` (stereo not drawn), the Inflection point with HCT-116 was 2700 nM; in assay [1] it was 250 nM. In turn, `COc1ccc(NC(=O)C(NCCc2ccncc2)c2ccc3cc(C(=O)Nc4ccccc4N)sc3c2)cc1` (stereo not drawn) registered an Inflection point in assay [1] of 32 nM.

As to `COCCNC(C(=O)NCc1ccccc1)c1ccc2cc(C(=O)Nc3ccccc3N)sc2c1` (stereo not drawn), the Inflection point in assay [1] was 170 nM. In assay [1], `Nc1ccccc1NC(=O)c1cc2ccc(C(C(=O)NCc3ccccc3)N3CCN(C(=O)OCc4ccccc4)CC3)cc2s1` (stereo not drawn) gave an Inflection point of 470 nM. On the same count and under the same terms, as for `Nc1ccccc1NC(=O)c1ccc(C(C(=O)Nc2ccc3ccccc3c2)N2CCN(c3ccccc3)CC2)cc1` (stereo not drawn), the figure is 620 nM; as for `Nc1ccccc1NC(=O)c1cc2ccc(C(C(=O)NCc3ccccc3)N3CCN(CCc4ccccc4)CC3)cc2s1` (stereo not drawn), 180 nM. In the case of `COc1ccc(NC(=O)C(NC2CCCCC2)c2ccc3cc(C(=O)Nc4ccccc4N)sc3c2)cc1` (stereo not drawn), the Inflection point in assay [1] turned out to be 74 nM.

For the compound `CN1CCN(C(C(=O)NCc2ccccc2)c2ccc(C(=O)Nc3ccccc3N)cc2)CC1` (stereo not drawn), the Inflection point in assay [1] is 860 nM. Take `Nc1ccccc1NC(=O)c1cc2ccc(C(NCCc3ccccc3)C(=O)NCc3ccccc3)cc2s1` (stereo not drawn): in assay [1], the Inflection point is 70 nM. `Cc1ccc(NC(=O)C(c2ccc3cc(C(=O)Nc4ccccc4N)sc3c2)N2CCN(C)CC2)cc1` (racemic) [listing 1 of 2 here] displayed an Inflection point with HCT-116 of 240 nM.

As to `CN1CCN(C(C(=O)Nc2ccc(Cl)cc2)c2ccc(C(=O)Nc3ccccc3N)cc2)CC1` (stereo not drawn), the Inflection point in assay [1] was 6200 nM. For `COc1ccc(CNC(C(=O)Nc2ccc(OC)cc2)c2ccc3cc(C(=O)Nc4ccccc4N)sc3c2)cc1` (stereo not drawn), in assay [1], the Inflection point was found to be 90 nM. As to `Cc1ccc(NC(=O)C(NC(=O)CCc2ccccc2)c2ccc(C(=O)Nc3ccccc3N)cc2)cc1` (stereo not drawn), the Inflection point with HCT-116 was found to be 3000 nM; in assay [1] it was 340 nM. `Nc1ccccc1NC(=O)c1ccc(C(C(=O)Nc2ccc3ccccc3c2)N2CCN(CCc3ccccc3)CC2)cc1` (stereo not drawn): the Inflection point in assay [1] stood at 680 nM. For the compound `CN1CCN(C(C(=O)NCc2ccccc2)c2ccc3cc(C(=O)Nc4ccccc4N)sc3c2)CC1` (stereo not drawn), the Inflection point in the assay on HCT-116 came to 430 nM; in assay [1], 110 nM. Consider `Nc1ccccc1NC(=O)c1cc2ccc(C(NCc3cccnc3)C(=O)NCc3ccccc3)cc2s1` (stereo not drawn), for which the Inflection point in assay [1] was 180 nM. On the same count and under the same terms, with `CC(C)(C)OC(=O)N1CCN(C(C(=O)NCc2ccccc2)c2ccc3cc(C(=O)Nc4ccccc4N)sc3c2)CC1` (stereo not drawn) the figure was 260 nM. For `Cc1ccc(NC(=O)C(c2ccc3cc(C(=O)Nc4ccccc4N)sc3c2)N2CCN(C)CC2)cc1` (single isomer, unassigned; enantiomer 1) [listing 1 of 2 here], the Inflection point in the assay with HCT-116 is given as 130 nM.

On to `Nc1ccccc1NC(=O)c1cc2ccc(C(NCCc3ccccc3)C(=O)NCCN3CCOCC3)cc2s1` (stereo not drawn), for which the Inflection point in assay [1] turned out to be 230 nM. On to `CN1CCN(C(C(=O)Nc2ccc(Cl)cc2)c2ccc3cc(C(=O)Nc4ccccc4N)sc3c2)CC1` (stereo not drawn), for which the Inflection point turned out to be 340 nM in the assay on HCT-116 and 62 nM in assay [1]. Consider `CN1CCN(C(C(=O)Nc2ccc3ccccc3c2)c2ccc3cc(C(=O)Nc4ccccc4N)sc3c2)CC1` (stereo not drawn), for which the Inflection point is 580 nM with HCT-116 and 25 nM in assay [1].

Consider `Cc1ccc(NC(=O)C(NC(=O)Cc2ccccc2)c2ccc(C(=O)Nc3ccccc3N)cc2)cc1` (stereo not drawn), for which the Inflection point in the assay on HCT-116 is 8100 nM; in assay [1], 690 nM.

For the compound `Nc1ccccc1NC(=O)c1cc2ccc(C(NCCc3ccncc3)C(=O)NCc3ccccc3)cc2s1` (stereo not drawn), in assay [1], the Inflection point came out at 39 nM.

With `CN1CCN(C(C(=O)Nc2ccc3ccccc3c2)c2ccc(C(=O)Nc3ccccc3N)cc2)CC1` (stereo not drawn), the Inflection point in the assay with HCT-116 came out at 640 nM; in assay [1] it was 360 nM. Consider `COc1ccc(NC(=O)C(NC(=O)Cc2ccccc2)c2ccc(C(=O)Nc3ccccc3N)cc2)cc1` (stereo not drawn), for which the Inflection point in the assay on HCT-116 was 6400 nM; in assay [1], 870 nM.

`Nc1ccccc1NC(=O)c1cc2ccc(C(NCCO)C(=O)NCc3ccccc3)cc2s1` (stereo not drawn): in assay [1], the Inflection point came to 150 nM. Take `CCN1CCN(C(C(=O)NCc2ccccc2)c2ccc3cc(C(=O)Nc4ccccc4N)sc3c2)CC1` (stereo not drawn): the Inflection point in the assay with HCT-116 stood at 490 nM; in assay [1], 80 nM. In assay [1], `COc1ccc(NC(=O)C(NCc2ccccc2)c2ccc3cc(C(=O)Nc4ccccc4N)sc3c2)cc1` (stereo not drawn) showed an Inflection point of 79 nM. Take `Nc1ccccc1NC(=O)c1cc2ccc(C(NCCc3ccccn3)C(=O)NCc3ccccc3)cc2s1` (stereo not drawn): in assay [1], the Inflection point came out at 110 nM.

The compound `CN(C)CCNC(C(=O)NCc1ccccc1)c1ccc2cc(C(=O)Nc3ccccc3N)sc2c1` (stereo not drawn) had an Inflection point in assay [1] of 150 nM. In assay [1], `Cc1ccc(NC(=O)C(c2ccc3cc(C(=O)Nc4ccccc4N)sc3c2)N2CCN(C)CC2)cc1` (single isomer, unassigned; enantiomer 1) [listing 2 of 2 here] yielded an Inflection point of 21 nM. In the case of `CN1CCN(C(Cc2ccc(C(=O)Nc3ccccc3N)cc2)C(=O)Nc2ccc(Cl)cc2)CC1` (stereo not drawn), the figures for the Inflection point (in the assay with HCT-116; in assay [1]) were 370 nM and 310 nM, respectively. Consider `CN1CCN(C(Cc2ccc(C(=O)Nc3ccccc3N)cc2)C(=O)Nc2ccc3ccccc3c2)CC1` (stereo not drawn), for which the Inflection point amounted to 220 nM in the assay on HCT-116 and 37 nM in assay [1]. The compound `COc1ccc(NC(=O)C(NCCc2ccccc2)c2ccc3cc(C(=O)Nc4ccccc4N)sc3c2)cc1` (stereo not drawn) had an Inflection point in assay [1] of 71 nM. With `Nc1ccccc1NC(=O)c1ccc(C(NC(=O)Cc2ccccc2)C(=O)Nc2ccc3ccccc3c2)cc1` (stereo not drawn), the Inflection point turned out to be 2700 nM in the assay with HCT-116 and 170 nM in assay [1]. Consider `COc1ccc(NC(=O)C(NC(=O)CCc2ccccc2)c2ccc(C(=O)Nc3ccccc3N)cc2)cc1` (stereo not drawn), for which the results for the Inflection point (in the assay with HCT-116; in assay [1]) were 2800 nM and 260 nM, respectively. In assay [1], `Nc1ccccc1NC(=O)c1cc2ccc(C(NCCc3ncc[nH]3)C(=O)NCc3ccccc3)cc2s1` (stereo not drawn) showed an Inflection point of 520 nM. Take `COc1ccc(NC(=O)C(c2ccc3cc(C(=O)Nc4ccccc4N)sc3c2)N2CCN(C)CC2)cc1` (stereo not drawn): the results for the Inflection point (with HCT-116; in assay [1]) were 410 nM and 43 nM, respectively. On to `Nc1ccccc1NC(=O)c1cc2ccc(C(C(=O)NCc3ccccc3)N3CCN(c4ccccc4)CC3)cc2s1` (stereo not drawn), for which the Inflection point in assay [1] was 150 nM. As for `Cc1ccc(NC(=O)C(c2ccc3cc(C(=O)Nc4ccccc4N)sc3c2)N2CCN(C)CC2)cc1` (racemic) [listing 2 of 2 here], the Inflection point in assay [1] was 25 nM.
